Test results as given in ChEMBL document CHEMBL2177025, “Chemical proteomics-based analysis of off-target binding profiles for rosiglitazone and pioglitazone: clues for assessing potential for cardiotoxicity” (J Med Chem, 2012).
Calls of active or inactive are those of the source. No cut-off for these calls is given here.

What was measured:
[1] = biological target: Citrate synthase, mitochondrial (Mus musculus) (UniProt Q9CZU6); assay: Binding affinity to mouse mitochondrial citrate synthase by chromatographic analysis relative to rosiglitazone
[2] = biological target: Cyclic AMP-dependent transcription factor ATF-2 (Mus musculus) (UniProt P16951); assay: Binding affinity to mouse cyclic AMP-dependent transcription factor ATF-2 by chromatographic analysis
[3] = biological target: Interleukin-12 subunit beta (Mus musculus) (UniProt P43432); assay: Binding affinity to mouse interleukin-12 beta chain precursor by chromatographic analysis
[4] = biological target: Trace amine-associated receptor 7b (Rattus norvegicus) (UniProt Q923X8); assay: Binding affinity to trace amine-associated receptor 7b in Sprague-Dawley rat heart homogenate after 15 mins by chromatographic analysis; type: tissue-based
[5] = biological target: 26S proteasome non-ATPase regulatory subunit 1 (Rattus norvegicus) (UniProt O88761); assay: Binding affinity to 26S proteasome non-ATPase regulatory subunit 1 in Sprague-Dawley rat heart homogenate after 15 mins by chromatographic analysis; type: tissue-based
[6] = biological target: Hemopexin (Rattus norvegicus) (UniProt P20059); assay: Binding affinity to hemopexin precursor in Sprague-Dawley rat heart homogenate after 15 mins by chromatographic analysis; type: tissue-based
[7] = biological target: 2-oxoglutarate dehydrogenase complex component E1 (Mus musculus) (UniProt Q60597); assay: Binding affinity to mouse mitochondrial 2-oxoglutarate dehydrogenase E1 component by chromatographic analysis
[8] = biological target: Phosphoglycerate kinase 1 (Rattus norvegicus) (UniProt P16617); assay: Binding affinity to Phosphoglycerate kinase 1 in Sprague-Dawley rat heart homogenate after 15 mins by chromatographic analysis; type: tissue-based
[9] = biological target: Sodium-dependent multivitamin transporter (Rattus norvegicus) (UniProt O70247); assay: Binding affinity to sodium-dependent multivitamin transporter in Sprague-Dawley rat heart homogenate after 15 mins by chromatographic analysis; type: tissue-based
[10] = biological target: Creatine kinase B-type (Rattus norvegicus) (UniProt P07335); assay: Binding affinity to creatine kinase B-type in Sprague-Dawley rat heart homogenate after 15 mins by chromatographic analysis; type: tissue-based
[11] = biological target: Creatine kinase M-type (Rattus norvegicus) (UniProt P00564); assay: Binding affinity to creatine kinase M-type in Sprague-Dawley rat heart homogenate after 15 mins by chromatographic analysis relative to rosiglitazone; type: tissue-based
[12] = biological target: PX domain-containing protein kinase-like protein (Rattus norvegicus) (UniProt Q4FZZ1); assay: Binding affinity to PX domain-containing protein kinase-like protein in Sprague-Dawley rat heart homogenate after 15 mins by chromatographic analysis relative to pioglitazone; type: tissue-based
[13] = biological target: Serine/threonine-protein kinase MAK (Mus musculus) (UniProt Q04859); assay: Binding affinity to mouse serine/threonine-protein kinase MAK by chromatographic analysis
[14] = biological target: Aspartate aminotransferase, mitochondrial (Rattus norvegicus) (UniProt P00507); assay: Binding affinity to mitochondrial aspartate aminotransferase in Sprague-Dawley rat heart homogenate after 15 mins by chromatographic analysis; type: tissue-based
[15] = biological target: ATP synthase F(1) complex catalytic subunit beta, mitochondrial (Rattus norvegicus) (UniProt P10719); assay: Binding affinity to mitochondrial ATP synthase beta chain in Sprague-Dawley rat heart homogenate after 15 mins by chromatographic analysis; type: tissue-based
[16] = biological target: Triosephosphate isomerase (Rattus norvegicus) (UniProt P48500); assay: Binding affinity to triosephosphate isomerase in Sprague-Dawley rat heart homogenate after 15 mins by chromatographic analysis relative to rosiglitazone; type: tissue-based
[17] = biological target: Endoplasmic reticulum membrane adapter protein XK (Mus musculus) (UniProt Q9QXY7); assay: Binding affinity to mouse membrane transport protein XK by chromatographic analysis relative to pioglitazone
[18] = biological target: Dynactin subunit 1 (Mus musculus) (UniProt O08788); assay: Binding affinity to mouse dynactin-1 by chromatographic analysis
[19] = biological target: T1, Cardiotrophin-like cytokine factor 1 (Mus musculus) (UniProt Q9QZM3); assay: Binding affinity to mouse cardiotrophin-like cytokine factor 1 precursor by chromatographic analysis relative to pioglitazone
T1 sequence (whole entry): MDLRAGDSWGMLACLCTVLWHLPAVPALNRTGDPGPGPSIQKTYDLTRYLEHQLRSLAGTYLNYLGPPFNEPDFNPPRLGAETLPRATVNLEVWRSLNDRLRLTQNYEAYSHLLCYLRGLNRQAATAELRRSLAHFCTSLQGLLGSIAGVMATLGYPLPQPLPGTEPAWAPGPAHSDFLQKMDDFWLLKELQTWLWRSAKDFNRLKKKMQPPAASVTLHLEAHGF

[20] = biological target: Fanconi anemia group M protein homolog (Mus musculus) (UniProt Q8BGE5); assay: Binding affinity to mouse Fanconi anemia group M protein homologue by chromatographic analysis relative to pioglitazone
[21] = biological target: Rab11 family-interacting protein 4 (Mus musculus) (UniProt Q8BQP8); assay: Binding affinity to mouse Rab11 family interacting protein 4 by chromatographic analysis relative to pioglitazone
[22] = biological target: Malate dehydrogenase, cytoplasmic (Mus musculus) (UniProt P14152); assay: Binding affinity to mouse cytoplasmic malate dehydrogenase by chromatographic analysis
[23] = biological target: Hepatocyte nuclear factor 6 (Mus musculus) (UniProt O08755); assay: Binding affinity to mouse hepatocyte nuclear factor 6 by chromatographic analysis
[24] = biological target: Selenocysteine insertion sequence-binding protein 2 (Rattus norvegicus) (UniProt Q9QX72); assay: Binding affinity to SECIS-binding protein 2 in Sprague-Dawley rat heart homogenate after 15 mins by chromatographic analysis relative to pioglitazone; type: tissue-based
[25] = biological target: Prolactin-3B1 (Rattus norvegicus) (UniProt P09321); assay: Binding affinity to chorionic somatomammotropin hormone 2 precursor in Sprague-Dawley rat heart homogenate after 15 mins by chromatographic analysis relative to pioglitazone; type: tissue-based
[26] = biological target: Kinesin light chain 1 (Rattus norvegicus) (UniProt P37285); assay: Binding affinity to Kinesin light chain 1 in Sprague-Dawley rat heart homogenate after 15 mins by chromatographic analysis; type: tissue-based
[27] = biological target: Cyclin-dependent kinase 7 (Mus musculus) (UniProt Q03147); assay: Binding affinity to mouse cell division protein kinase 7 by chromatographic analysis
[28] = biological target: Malate dehydrogenase, mitochondrial (Rattus norvegicus) (UniProt P04636); assay: Binding affinity to mitochondrial malate dehydrogenase in Sprague-Dawley rat heart homogenate after 15 mins by chromatographic analysis; type: tissue-based
[29] = biological target: Septin-9 (Rattus norvegicus) (UniProt Q9QZR6); assay: Binding affinity to septin-9 in Sprague-Dawley rat heart homogenate after 15 mins by chromatographic analysis relative to pioglitazone; type: tissue-based

Sequence of ATP synthase F(1) complex catalytic subunit beta, mitochondrial (Rattus norvegicus) (P10719 whole entry, one chain of several): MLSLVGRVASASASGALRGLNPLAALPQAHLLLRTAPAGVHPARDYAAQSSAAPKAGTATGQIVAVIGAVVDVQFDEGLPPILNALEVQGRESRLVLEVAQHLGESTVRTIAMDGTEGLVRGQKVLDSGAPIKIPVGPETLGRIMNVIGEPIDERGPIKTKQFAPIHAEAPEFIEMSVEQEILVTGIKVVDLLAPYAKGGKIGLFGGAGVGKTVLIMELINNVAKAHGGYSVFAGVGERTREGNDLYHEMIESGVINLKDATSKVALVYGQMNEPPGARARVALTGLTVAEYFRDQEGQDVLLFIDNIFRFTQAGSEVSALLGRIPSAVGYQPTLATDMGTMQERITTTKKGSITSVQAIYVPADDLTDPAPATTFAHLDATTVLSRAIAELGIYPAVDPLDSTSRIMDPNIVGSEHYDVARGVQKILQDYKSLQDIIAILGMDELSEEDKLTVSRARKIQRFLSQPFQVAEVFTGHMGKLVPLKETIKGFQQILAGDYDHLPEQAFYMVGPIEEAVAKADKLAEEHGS
Sequence of Serine/threonine-protein kinase MAK (Mus musculus) (Q04859 whole entry): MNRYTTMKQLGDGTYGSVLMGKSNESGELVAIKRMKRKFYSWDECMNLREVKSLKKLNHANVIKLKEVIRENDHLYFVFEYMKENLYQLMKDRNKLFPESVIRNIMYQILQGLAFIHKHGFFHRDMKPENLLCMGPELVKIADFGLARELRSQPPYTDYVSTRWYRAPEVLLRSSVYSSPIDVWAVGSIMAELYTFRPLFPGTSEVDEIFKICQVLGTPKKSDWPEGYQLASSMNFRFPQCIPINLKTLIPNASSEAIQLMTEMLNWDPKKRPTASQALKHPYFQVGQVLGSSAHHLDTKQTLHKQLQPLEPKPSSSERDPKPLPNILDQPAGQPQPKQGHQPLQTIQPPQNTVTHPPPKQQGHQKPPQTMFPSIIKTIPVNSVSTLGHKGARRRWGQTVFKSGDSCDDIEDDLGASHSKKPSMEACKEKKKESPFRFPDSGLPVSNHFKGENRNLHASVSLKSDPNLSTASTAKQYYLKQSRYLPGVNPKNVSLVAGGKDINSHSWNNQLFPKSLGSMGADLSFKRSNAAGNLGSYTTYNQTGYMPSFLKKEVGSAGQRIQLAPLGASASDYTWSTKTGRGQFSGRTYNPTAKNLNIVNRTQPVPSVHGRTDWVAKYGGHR
Sequence of PX domain-containing protein kinase-like protein (Rattus norvegicus) (Q4FZZ1 whole entry, the tested form may be a part): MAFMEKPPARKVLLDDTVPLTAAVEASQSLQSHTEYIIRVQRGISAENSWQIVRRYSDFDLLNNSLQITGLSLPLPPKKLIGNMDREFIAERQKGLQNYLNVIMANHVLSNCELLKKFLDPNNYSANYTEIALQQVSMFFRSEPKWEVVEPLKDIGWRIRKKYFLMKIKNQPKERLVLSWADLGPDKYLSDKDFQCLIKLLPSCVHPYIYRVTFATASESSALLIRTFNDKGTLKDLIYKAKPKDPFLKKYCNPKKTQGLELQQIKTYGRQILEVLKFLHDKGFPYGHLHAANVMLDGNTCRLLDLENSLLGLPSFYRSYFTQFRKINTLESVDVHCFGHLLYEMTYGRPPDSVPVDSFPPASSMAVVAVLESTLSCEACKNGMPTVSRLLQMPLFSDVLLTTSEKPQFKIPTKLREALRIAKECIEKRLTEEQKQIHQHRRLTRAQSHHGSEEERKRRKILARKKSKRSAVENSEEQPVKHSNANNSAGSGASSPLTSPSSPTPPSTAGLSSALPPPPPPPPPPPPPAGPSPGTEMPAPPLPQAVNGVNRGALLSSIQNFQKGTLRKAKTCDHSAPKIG
Sequence of 26S proteasome non-ATPase regulatory subunit 1 (Rattus norvegicus) (O88761 whole entry): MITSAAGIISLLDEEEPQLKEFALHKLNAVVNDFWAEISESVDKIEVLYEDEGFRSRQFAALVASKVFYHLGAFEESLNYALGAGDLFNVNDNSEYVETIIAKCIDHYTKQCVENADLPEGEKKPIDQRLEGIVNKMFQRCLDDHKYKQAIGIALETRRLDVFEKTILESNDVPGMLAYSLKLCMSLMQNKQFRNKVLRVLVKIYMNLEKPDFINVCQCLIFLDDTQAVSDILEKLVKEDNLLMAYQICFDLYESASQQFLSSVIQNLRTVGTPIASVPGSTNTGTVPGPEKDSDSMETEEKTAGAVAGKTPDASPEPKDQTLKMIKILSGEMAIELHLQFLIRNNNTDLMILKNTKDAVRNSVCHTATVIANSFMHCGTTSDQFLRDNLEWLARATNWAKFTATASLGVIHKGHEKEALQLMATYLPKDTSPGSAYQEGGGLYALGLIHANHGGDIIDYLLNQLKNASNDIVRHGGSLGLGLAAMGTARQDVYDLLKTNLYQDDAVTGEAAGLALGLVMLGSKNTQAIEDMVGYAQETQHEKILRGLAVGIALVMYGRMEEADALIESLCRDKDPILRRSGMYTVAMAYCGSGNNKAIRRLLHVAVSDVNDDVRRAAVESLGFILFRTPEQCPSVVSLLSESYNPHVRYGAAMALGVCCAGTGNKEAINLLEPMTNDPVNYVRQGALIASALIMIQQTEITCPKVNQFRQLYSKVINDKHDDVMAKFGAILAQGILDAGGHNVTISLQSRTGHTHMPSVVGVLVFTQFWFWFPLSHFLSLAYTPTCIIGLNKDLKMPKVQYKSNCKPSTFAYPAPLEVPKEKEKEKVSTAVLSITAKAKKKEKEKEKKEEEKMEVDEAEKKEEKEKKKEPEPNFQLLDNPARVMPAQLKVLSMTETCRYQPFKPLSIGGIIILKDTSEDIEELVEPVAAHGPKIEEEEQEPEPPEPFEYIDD
Sequence of Dynactin subunit 1 (Mus musculus) (O08788 whole entry): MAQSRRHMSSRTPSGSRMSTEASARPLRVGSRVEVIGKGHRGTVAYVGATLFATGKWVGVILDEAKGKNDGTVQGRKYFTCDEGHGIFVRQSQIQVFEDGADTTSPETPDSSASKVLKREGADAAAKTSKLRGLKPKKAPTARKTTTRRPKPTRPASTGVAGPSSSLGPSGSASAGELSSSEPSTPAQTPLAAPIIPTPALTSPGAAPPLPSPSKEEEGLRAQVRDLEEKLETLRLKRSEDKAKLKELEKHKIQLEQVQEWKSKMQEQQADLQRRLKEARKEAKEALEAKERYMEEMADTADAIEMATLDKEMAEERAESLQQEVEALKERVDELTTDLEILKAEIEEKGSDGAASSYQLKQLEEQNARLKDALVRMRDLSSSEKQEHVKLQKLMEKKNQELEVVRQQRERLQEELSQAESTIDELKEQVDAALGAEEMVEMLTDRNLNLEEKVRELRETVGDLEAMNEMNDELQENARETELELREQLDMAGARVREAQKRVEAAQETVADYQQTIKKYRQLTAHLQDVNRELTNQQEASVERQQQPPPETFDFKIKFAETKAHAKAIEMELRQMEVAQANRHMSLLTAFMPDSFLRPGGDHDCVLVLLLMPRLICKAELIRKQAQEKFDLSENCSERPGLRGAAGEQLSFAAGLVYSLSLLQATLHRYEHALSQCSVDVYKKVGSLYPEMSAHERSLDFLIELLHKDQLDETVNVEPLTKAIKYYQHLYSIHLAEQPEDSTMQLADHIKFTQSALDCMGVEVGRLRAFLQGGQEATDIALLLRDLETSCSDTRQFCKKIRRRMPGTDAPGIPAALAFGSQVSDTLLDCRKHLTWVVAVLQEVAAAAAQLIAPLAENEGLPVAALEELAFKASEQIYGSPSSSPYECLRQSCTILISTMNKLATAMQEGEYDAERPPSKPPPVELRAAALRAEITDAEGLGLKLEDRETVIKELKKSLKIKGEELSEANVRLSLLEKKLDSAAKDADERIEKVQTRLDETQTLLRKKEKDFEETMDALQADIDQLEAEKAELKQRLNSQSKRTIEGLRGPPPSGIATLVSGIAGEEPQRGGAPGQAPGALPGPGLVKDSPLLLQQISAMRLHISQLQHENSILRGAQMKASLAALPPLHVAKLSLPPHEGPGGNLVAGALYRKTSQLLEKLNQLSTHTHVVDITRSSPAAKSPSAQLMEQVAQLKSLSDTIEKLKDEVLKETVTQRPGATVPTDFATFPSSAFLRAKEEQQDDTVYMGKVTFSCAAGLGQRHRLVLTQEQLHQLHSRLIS
Sequence of Sodium-dependent multivitamin transporter (Rattus norvegicus) (O70247 whole entry): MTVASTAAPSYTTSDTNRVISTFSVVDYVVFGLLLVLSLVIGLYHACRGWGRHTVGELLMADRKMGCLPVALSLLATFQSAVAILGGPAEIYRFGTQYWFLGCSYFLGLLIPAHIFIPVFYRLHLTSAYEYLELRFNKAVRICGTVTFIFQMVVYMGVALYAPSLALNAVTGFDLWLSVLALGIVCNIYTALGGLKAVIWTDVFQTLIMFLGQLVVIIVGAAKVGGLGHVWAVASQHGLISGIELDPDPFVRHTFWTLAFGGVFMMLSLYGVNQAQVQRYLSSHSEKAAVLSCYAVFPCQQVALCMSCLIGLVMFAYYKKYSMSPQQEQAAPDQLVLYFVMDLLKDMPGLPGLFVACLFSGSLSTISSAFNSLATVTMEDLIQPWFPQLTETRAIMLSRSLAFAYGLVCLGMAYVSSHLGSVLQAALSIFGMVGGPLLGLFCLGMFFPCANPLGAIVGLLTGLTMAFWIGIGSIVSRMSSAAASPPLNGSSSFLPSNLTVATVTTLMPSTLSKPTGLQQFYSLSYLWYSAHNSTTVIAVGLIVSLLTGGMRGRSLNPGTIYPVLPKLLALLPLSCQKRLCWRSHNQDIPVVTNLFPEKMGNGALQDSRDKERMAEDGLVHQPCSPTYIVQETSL
Sequence of Endoplasmic reticulum membrane adapter protein XK (Mus musculus) (Q9QXY7 whole entry): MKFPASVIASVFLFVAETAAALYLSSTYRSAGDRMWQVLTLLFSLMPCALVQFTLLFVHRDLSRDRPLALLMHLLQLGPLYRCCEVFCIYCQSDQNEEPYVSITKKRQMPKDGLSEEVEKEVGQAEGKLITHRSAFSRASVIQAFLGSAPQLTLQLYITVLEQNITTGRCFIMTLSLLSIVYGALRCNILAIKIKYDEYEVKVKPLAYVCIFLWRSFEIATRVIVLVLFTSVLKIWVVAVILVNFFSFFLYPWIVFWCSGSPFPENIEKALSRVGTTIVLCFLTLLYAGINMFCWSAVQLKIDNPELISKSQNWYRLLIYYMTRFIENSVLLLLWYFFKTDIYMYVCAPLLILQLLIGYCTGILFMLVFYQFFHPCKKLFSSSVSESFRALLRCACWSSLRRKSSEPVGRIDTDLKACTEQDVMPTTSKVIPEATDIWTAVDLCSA

CCc1ccc(CCOc2ccc(CC3SC(=O)NC3=O)cc2)nc1 (stereo unspecified)
fold change (FC) [1]: 5.52
fold change (FC) [2]: 1.64
Activity [3]: Active
Activity [4]: Active
Activity [5]: Active
Activity [6]: Active
Activity [7]: Active
Activity [8]: Active
Activity [9]: Active
Activity [10]: Active
fold change (FC) [11]: 6.16
Activity [12]: Active
Activity [13]: Active
Activity [14]: Active
Activity [15]: Active
fold change (FC) [16]: 6.46
Activity [17]: Active
Activity [18]: Active

CN(CCOc1ccc(CC2SC(=O)NC2=O)cc1)c1ccccn1 (stereo unspecified)
fold change (FC) [19]: 2.56
fold change (FC) [20]: 2.94
fold change (FC) [21]: 3.74
Activity [22]: Active
Activity [23]: Active
Activity [5]: Active
fold change (FC) [24]: 3.22
Activity [9]: Active
fold change (FC) [25]: 3.92
Activity [26]: Active
fold change (FC) [12]: 2.64
Activity [13]: Active
Activity [27]: Active
Activity [15]: Active
Activity [28]: Active
fold change (FC) [17]: 1.88
fold change (FC) [29]: 2.08
Activity [18]: Active
